{
  "source": "paper PMC3711671",
  "about": "(Nature chemical biology, 2012)",
  "key": {"PKM2 in A549 cells": {"target": "PKM2 in A549 cells (Homo sapiens, UniProt P14618)", "sequence (P14618 2-531 limits assumed)": "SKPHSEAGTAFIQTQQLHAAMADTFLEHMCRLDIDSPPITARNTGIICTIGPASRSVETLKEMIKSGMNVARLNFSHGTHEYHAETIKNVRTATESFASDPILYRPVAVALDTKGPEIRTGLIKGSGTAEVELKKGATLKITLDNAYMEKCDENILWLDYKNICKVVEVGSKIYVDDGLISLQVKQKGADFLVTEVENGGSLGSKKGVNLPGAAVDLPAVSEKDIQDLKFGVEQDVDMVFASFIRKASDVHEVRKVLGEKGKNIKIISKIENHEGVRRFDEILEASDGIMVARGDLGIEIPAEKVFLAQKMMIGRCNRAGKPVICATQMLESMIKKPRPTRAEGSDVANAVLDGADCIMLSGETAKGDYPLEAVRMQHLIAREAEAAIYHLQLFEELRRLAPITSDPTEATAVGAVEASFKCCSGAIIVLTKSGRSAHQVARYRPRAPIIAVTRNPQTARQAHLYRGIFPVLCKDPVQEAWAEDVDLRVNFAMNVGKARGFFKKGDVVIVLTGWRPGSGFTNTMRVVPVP", "test": "Size exclusion chromatography of cell lysates", "assay_type": "cell-based", "details": "100 μM pervanadate for 10 min"}, "[1]": {"target": "recombinant PKM2 monomers and tetramers (Homo sapiens, UniProt P14618)", "sequence (P14618 whole entry)": "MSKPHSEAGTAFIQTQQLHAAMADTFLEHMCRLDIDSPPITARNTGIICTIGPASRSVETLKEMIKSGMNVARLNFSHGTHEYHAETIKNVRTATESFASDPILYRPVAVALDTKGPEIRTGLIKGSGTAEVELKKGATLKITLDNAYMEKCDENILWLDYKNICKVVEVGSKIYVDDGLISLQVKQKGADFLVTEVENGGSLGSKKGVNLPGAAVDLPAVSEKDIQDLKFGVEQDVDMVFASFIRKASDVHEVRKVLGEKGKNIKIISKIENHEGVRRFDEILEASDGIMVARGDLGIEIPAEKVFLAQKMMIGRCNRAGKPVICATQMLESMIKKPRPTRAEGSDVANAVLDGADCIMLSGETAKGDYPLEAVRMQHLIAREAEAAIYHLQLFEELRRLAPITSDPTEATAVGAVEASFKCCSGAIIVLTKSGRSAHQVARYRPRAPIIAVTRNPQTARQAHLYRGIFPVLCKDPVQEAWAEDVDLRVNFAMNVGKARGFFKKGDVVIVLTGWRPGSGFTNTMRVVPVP", "assay_type": "biochemical", "details": "100 µM FBP"}},
  "data": [
    {"compound": "Pervanadate", "values": [
      {"measurement": "PKM2 subunit stoichiometry in cells after pervanadate", "setting": "PKM2 in A549 cells", "result": "disappearance of PKM2 tetramers"}
    ]},
    {"compound": "O=C(COP(=O)(O)O)[C@@H](O)[C@H](O)[C@H](O)COP(=O)(O)O", "note": "[FBP, fructose-1,6-bisphosphate]", "values": [
      {"measurement": "effect on PKM2 tetramer activity", "setting": "[1]", "result": "minimal effects"},
      {"measurement": "increase of activity of PKM2 monomers", "setting": "[1]", "result": "approximately 70%"}
    ]}
  ]
}
